Experimental data taken from a melting point compilation (Tetko et al.; mined from patent text by program, amines drawn as free bases though some values may be those of a salt).

Structure (SMILES)	melting point
COc1ccnc(C(=O)N[C@H]2COC(=O)[C@H](Cc3ccccc3)[C@@H](O)[C@H](C)OC2=O)c1OCc1ccccc1	110 to 114 °C
Cn1cc(-c2cc(-c3cnc4c(c3)CCC(=O)N4)ccn2)n(-c2ccc(C(C)(C)C#N)cc2)c1=O	284 °C
O=C(NC(=O)c1c(F)cccc1F)Nc1ccc(C(O)(C(F)(F)F)C(F)(F)F)cc1	205 to 207 °C
CNC(=S)N(C)Cc1cnc(Cl)s1	129 to 131 °C
O=C1c2cccc(Br)c2C(=O)N1CCCn1cncn1	113 to 115 °C
CC(C)(C)C(=O)c1oc(N)nc1C(C)(C)C	248 to 250 °C
O=C(CC1CSCCC1=O)c1ccccc1 (stereo unspecified)	102 to 104 °C
CCOC(=O)c1ccc(NC(=O)C=C(c2ccccc2)c2ccccc2)cc1	166 to 169 °C
CC(c1ccc(-c2ccc(F)cc2)cc1)N1CCN(CCO)CC1 (stereo unspecified)	120 to 123 °C
Cc1ccc(-n2nc(C(C)(C)C)cc2NC(=O)Nc2ccc(OCCc3ccncc3)c3ccccc23)cn1	189 to 190 °C
CN(CC(=O)OC(C)(C)C)Cc1ccc(CCn2cnc3cc(-c4ccc(Cl)cc4)sc3c2=O)cc1	130 °C
CC(C)(c1ccccc1)c1ccc(N)c([N+](=O)[O-])c1	92 to 94 °C
COC(=O)c1ccc2c(c1)ncn2Cc1ccccc1	156 to 162 °C
CNCc1ccc(C2=NCCN2C(=O)OC(C)(C)C)cc1	65 °C
COc1ccccc1Cc1ccc(Cl)nn1	63 °C
CCCC(=O)C1CCC2C3CCC4CC(O)CCC4(C)C3C(=O)CC12C (stereo unspecified)	112 to 113 °C
CNc1c(N)c(C)nn1C	87 °C
N#CC1c2ccccc2Oc2cc(O)cc(O)c21 (stereo unspecified)	211 to 215 °C
COC(=O)COc1ccc(C(=O)CN(C)C(=O)c2ccc(C(=N)N)cc2)cc1OCC(=O)OC	177 to 178 °C
COC(=O)c1ccc(-c2cccc(OCc3ccc(COC(=O)c4ccccc4)c(COC(=O)c4ccccc4)c3)c2)cc1	71 to 72 °C
Cn1nnc2c(N3CCN(Cc4ccccc4)CC3)ncnc21	91 to 92 °C
Cc1cc(O)c([N+](=O)[O-])c(=O)n1CC(=O)O	205 °C
CNC(=S)NCCCCc1nc[nH]c1C	110 to 112 °C
CCOC(=O)[C@H](CCc1ccccc1)N[C@@H](C)C(=O)N1N=C(c2ccccc2)S[C@H]1C(=O)O	180 to 182 °C
CCC(=O)NCC(CCO)c1cccc2ccc(OC)cc12 (stereo unspecified)	123 to 125 °C
COC(=O)c1oc(Cl)nc1C	69 to 71 °C

Structure (SMILES)	melting point
CC(=O)N(C(C)=O)c1cnn(-c2cccc(C(F)(F)F)c2)c(=O)c1-c1cccc(C(F)(F)F)c1	174 °C
CCCCC(CC)C(=O)NCCCCCCCCCCCOCC(O)CNCCO (stereo unspecified)	76.1 to 77.3 °C
O=C(Nc1ccc2c(c1)OCO2)O[C@@H]1CN=C(c2ccccc2)O[C@H]1c1ccccc1 (racemic)	138 °C
COC(=O)C[C@H](O)C[C@H](O)CCc1c(-c2ccc(F)cc2)c(-c2ccccc2)c(C(=O)Nc2ccccc2)n1C(C)C	154 to 157 °C
[N-]=[N+]=C1C(=O)CC2CCCCC2C1=O (stereo unspecified)	81 to 83 °C
CCn1ncc2nc(C#N)c(OCCC(C)C)nc21	78 to 80 °C
CCC(=C(c1ccccc1)c1ccc(C=CCO)cc1)c1ccccc1	80 to 83 °C
Cc1ccnc(-c2nc(=O)c3ccccc3s2)c1	200 °C
CCOC(=O)c1cn(-c2cnnn2C)c2nc(Cl)c(F)cc2c1=O	251 °C
CCCOc1ccccc1-c1ccc(C(=O)O)c(=O)[nH]1	194 to 196 °C
COC(=O)C1Cc2c([nH]c3ccccc23)C(c2ccc(OC)c(O)c2)N1 (stereo unspecified)	140 to 148 °C
Fc1ccc(Nc2nc3ccccc3o2)c(F)c1	115 to 117 °C
OCc1cn(Cc2ccc(OCc3csc(-c4ccccc4)n3)cc2)nc1-c1cccs1	147 to 148 °C
CC(=N)NS(=O)(=O)C=Cc1ccccc1	130 to 134 °C
COc1ccc(SCCCCCCCC(=O)O)cc1	66 to 68 °C
COc1cc2c(Nc3cccc(Cl)c3F)ncnc2cc1O[C@H]1CCCN(C(=O)CN2CCN(C)CC2)C1	120 to 121 °C
CCN1C(C(=O)Nc2cncc(Cl)n2)=C(O)c2ccccc2S1(=O)=O	233 to 235 °C
CCCCc1cn(-c2ccccc2Cl)c(=O)n1Cc1ccc(-c2ccccc2-c2nnn[nH]2)nc1	81 to 83 °C
Cc1nn(C)c2nc(N)[nH]c(=O)c2c1=O	> 300 °C
Nc1nsnc1NCCCOc1cccc(CN2CCCCC2)c1	137 to 138 °C
O=C(Nc1ccc2ccc(-c3cccc(Br)c3)nc2n1)c1ccccc1	204 to 206 °C
CCC(C(=O)O)c1cccc(C(=O)c2cc3cc(C(=O)O)sc3s2)c1 (stereo unspecified)	240 °C
CN(c1cccc2cc(C(=O)NCC(C)(CN3CCOCC3)SCc3ccccc3)[nH]c12)S(=O)(=O)c1cccs1 (stereo unspecified)	150 to 152 °C
COc1ccc(/C=C/C(=O)Nc2ccccc2C(=O)O)cn1	209 to 211 °C
CC(O)COc1ccc2c(c1)OC(C)(C)CC2=O (stereo unspecified)	111 to 113 °C
O=P(O)(O)C1=CCCCC1	128 °C

Structure (SMILES)	melting point
C[C@@H]1CCC[C@H](C)N1CCNC(=O)CN1C(=O)CCC1(C)C	94 to 94.5 °C
Nc1ccc(Cl)c(Cl)c1CO	134 to 135 °C
COc1cc(OC)c2c(=O)c(OCCOc3ccc(C(C)=C4SC(=O)NC4=O)cc3)c(-c3ccc(OC)c(OC)c3)oc2c1	205 to 206 °C
Clc1ccc(N2CCN3CCC2CC3)nn1	127 to 128 °C
Cn1cc([N+](=O)[O-])nc1C=O	129 °C
CC(=O)NCC1OC(n2cc(C=CBr)c(=O)[nH]c2=O)CC1Cl (stereo unspecified)	163 to 165 °C
N#Cc1cnn2c1N(C(=O)CN1CCN(Cc3ccccc3C(F)(F)F)CC1)CC=C2c1cccc(C(F)(F)F)c1	169 to 171 °C
ON=CCc1ccc(F)cc1	113 to 115 °C
O=C(NCc1ccc(Cl)cc1)c1cn2c3c(cc(CN4CCOCC4)cc3c1=O)CN(Cc1ccccc1)C2	203 to 205 °C
CC(C)(C)OC(=O)N(Cc1ccc(C2CCCCC2)cc1)c1nc(N2CCOCC2)c2ncn(CC(=O)O)c2n1	166 to 167 °C
COC(=O)[C@H]1CC[C@H](NC(=O)c2cc(-c3ccc(C#N)cc3)nn(Cc3ccccc3)c2=O)CC1	217 to 220 °C
O=C1CCC(c2ccc(-c3cccnc3)cc2)=NN1	225 to 226 °C
CCOc1cc(OCc2ccccc2OCc2nc(-c3ccccc3)oc2C)ccc1CCC(=O)O	112 to 113 °C
CN(C)CCC(=O)c1c(-c2ccccc2)[nH]c2ccccc12	136 to 138 °C
CCCN1CC(C)C=C2c3cccc4c3C(CN4)CC21 (stereo unspecified)	135 to 137 °C
COc1ccc(OC)c(-c2ccc(C(C)=NOCCOc3ccc(CC4SC(=O)NC4=O)cc3)cc2)c1 (stereo unspecified)	47 to 52 °C
CCNc1ccc2c(c1)Cc1c-2[nH]c2ccccc12	225 °C
Cc1ccc(C2C(=O)CC(C)(C)CC2=O)c(C)c1	167 to 169 °C
O=C(O)Cc1ccc(OCCNC(=O)C2Cc3ccccc3N2S(=O)(=O)c2ccc(-c3ccc(F)cc3Cl)cc2)cc1 (stereo unspecified)	90 °C
CNS(=O)(=O)Oc1ccc2c(c1)C(C)(C)C(N1CCOCC1)O2 (stereo unspecified)	129 to 131 °C
COc1ccc(Oc2c(C)cc([N+](=O)[O-])cc2C)cc1C(=O)c1ccc(F)cc1	167 to 168 °C
COC(=O)C(O)C(CC(C)C)NC(=O)C(CC(C)C)NC(=O)C(CC(=O)N1CCOCC1)Cc1cccc2ccccc12 (mixture of isomers)	69 to 70 °C
CC1(C)NC(=O)c2ccc(Oc3nnnn3-c3ccccc3)cc21	202 to 204 °C
COc1cc2c(c3c1OC(C)(C)C3)C(c1ccn(Cc3ccc(C(=O)Nc4ccncc4)cc3)c(=O)c1)=NC(C)(C)C2	144 to 146 °C
COc1cc(OC)nc(Sc2c(NC(=O)C(F)(F)F)nc(C)n2C)n1	160 to 162 °C
CNC(=O)CN1CCC2=C(C1)c1c(O)cc(C(C)C)cc1OC2(C)C	178 to 190 °C

Structure (SMILES)	melting point
Cc1cc(C2CCN(C(=O)OC(C)(C)C)CC2)cnc1COc1ccc(S(C)(=O)=O)cc1	130 to 132 °C
O=C1c2cc(Br)ccc2CCc2ccc(S(=O)(=O)F)cc21	148 to 151 °C
C#CCn1c(=O)n(CCN2CCN(c3ccccc3OC)CC2)c(=O)c2cscc21	142 to 143 °C
CC(C)(C)N1CC(O)C1	42 to 43 °C
Cc1cc(NCc2ccc(-c3ccccc3C#N)cc2)n2nccc2n1	221 to 223 °C
O=c1[nH]c2cc(Cl)ccc2c(NS(=O)(=O)c2ccccc2)c1-c1ccccc1	268 °C
CCOC(=O)c1sc(=O)[nH]c1-c1cccc(C(F)(F)F)c1	168 to 171 °C
C=CC(=O)OCCCCCCC[C@H]1CC[C@H](c2cccc(F)c2F)CC1	34 to 35.3 °C
OC1CSC(Oc2cncc(Cl)c2)C(O)C1O (stereo unspecified)	184 °C
NC(=O)[C@@H]1C[C@H](C(=O)O)Nc2cc(Cl)cc(Cl)c21 (relative stereo)	220 to 222 °C
COC(=O)c1ccc(-c2ccncc2)cc1	99 to 101 °C
CCCc1nc2c(N)nc3ccccc3c2n1CCCCN(O)C(C)=O	191 to 193 °C
COc1ccc(CCNC(=O)CN)cc1OC1CCCC1	57 to 60 °C
CC(C)C[C@H](NC(=O)OCC1CCCCC1)C(=O)NC(C)(C)C(=O)c1c(-c2ccccc2)c1=O	42 to 49 °C
CCCCNC(=O)Oc1cccc(NC(=O)C=C(CCC)OC)c1	150 °C
CN(C)c1cncc(-c2nc(=O)c3ccccc3s2)n1	248 to 249 °C
Cc1noc(NC(=O)c2cnccc2C(F)(F)F)c1Cl	153 to 156 °C
CCCc1c(OCC2COc3c(F)cc(CC(=O)O)cc32)ccc(C(C)=O)c1O (stereo unspecified)	133 to 135 °C
ClCc1cccc2c1CCCC2	51 to 52 °C
CN(C)C1(c2ccccc2Cl)C(=O)Nc2ccc(Cl)cc21 (stereo unspecified)	169 to 172 °C
COC(=O)c1c(Cl)cc(C(F)(F)F)nc1C(F)(F)F	48 to 49 °C
O=C(CCCl)n1ccc2ccccc21	67 °C
O=C(c1ccc(-n2ccnc2)cc1)N1CCN(S(=O)(=O)c2cc3cc(Cl)ccc3o2)CC1	175 to 177 °C
